Converted amounts (≈) assume the structure as drawn.
Tests used:
[1] = Solubility in phosphate buffer by radiotracer analysis method; type: physicochemical
[2] = PLAP-mediated conversion of prodrug to drug; type: ADME
[3] = Aqueous solubility by radiotracer analysis method; type: physicochemical; details: buffer

| solubility [1] | Activity [2] | solubility [3] | SMILES |
| --- | --- | --- | --- |
| 4350 µg/mL | Active | – | N.N.N.N.O=P(O)(O)Oc1ccc(-c2nc(O)c3cc([127I])ccc3n2)c(OP(=O)(O)O)c1 |
| – | – | 0.00968 µg/mL (≈ 0.0255 µM) | O=c1[nH]c(-c2ccc(O)cc2O)nc2ccc([127I])cc12 |
| – | Active | – | N.N.N.N.O=c1[nH]c(-c2ccc(OP(=O)(O)O)cc2OP(=O)(O)O)nc2ccc([125I])cc12 |

Source: ChEMBL document CHEMBL1141387, “Molecular-docking-guided design, synthesis, and biologic evaluation of radioiodinated quinazolinone prodrugs” (J Med Chem, 2007)
